The text below walks through data of ChEMBL document CHEMBL3098113, “Identification of quinones as HER2 inhibitors for the treatment of trastuzumab resistant breast cancer” (Bioorg Med Chem Lett, 2014).

Calls of active or inactive are those of the source. The calls are words filed in the database; no cut-off is given here.

Test [1] has as its target T1, Receptor tyrosine-protein kinase erbB-2 (Homo sapiens, UniProt P04626). In words: Inhibition of HER2 autophosphorylation at Y1248 in human MCF7 cells at 10 uM after 2 hrs by Western blotting. In kind it is cell-based.
Test [2] has as its system MCF7. Nature of the test: Cytotoxicity against human MCF7 cells expressing pcDNA3 assessed as reduction of cell viability at 10 uM after 48 hrs CellTiter-Glo assay. The test is classed as functional.
The target in test [3] is T1, Receptor tyrosine-protein kinase erbB-2. Nature of the test: Inhibition of HER2 autophosphorylation at Y1248 in human MCF7 cells expressing pcDNA3 at 10 uM after 2 hrs by Western blotting. In kind it is cell-based. On the technique in general: A western blot detects proteins with antibodies after separation by electrophoresis.
In test [4] the test system is MCF7. Nature of the test: Cytotoxicity against human MCF7 cells expressing HER2delta16 assessed as reduction of cell viability after 48 hrs CellTiter-Glo assay. The test is classed as functional, cell-based. As to conditions: MCF7, 48 h. A general note: Cellular ATP, detected with luciferase, serves as a proxy for viable cell number.
For test [5], the system named is MCF7. In words: Cytotoxicity against human MCF7 cells expressing HER2delta16 assessed as reduction of cell viability at 10 uM after 48 hrs CellTiter-Glo assay. The test is classed as functional.
In test [6] the test system is MCF7. Nature of the test: Inhibition of HER2 delta16 mutant autophosphorylation at Y1248 in human MCF7 cells at 10 uM after 2 hrs by Western blotting. The test is classed as cell-based.
Test [7] deals with MCF7. In words: Cytotoxicity against human MCF7 cells expressing HER2 assessed as reduction of cell viability after 48 hrs CellTiter-Glo assay. As to conditions: MCF7, 48 h. The test is classed as functional, cell-based.
In test [8] the test system is MCF7. In words: Cytotoxicity against human MCF7 cells expressing HER2 assessed as reduction of cell viability at 10 uM after 48 hrs CellTiter-Glo assay. In kind it is functional.
Test [9] has as its system MCF7. Nature of the test: Cytotoxicity against human MCF7 cells expressing pcDNA3 assessed as reduction of cell viability after 48 hrs CellTiter-Glo assay. The test is classed as functional, cell-based. As to conditions: MCF7, 48 h.
Test [10] has as its target T1, Receptor tyrosine-protein kinase erbB-2. In words: Inhibition of HER2 (unknown origin) by ADP-Glo assay. In general terms: ADP-Glo first removes unused ATP, then detects ADP through luciferase.

T1 sequence (P04626 whole entry): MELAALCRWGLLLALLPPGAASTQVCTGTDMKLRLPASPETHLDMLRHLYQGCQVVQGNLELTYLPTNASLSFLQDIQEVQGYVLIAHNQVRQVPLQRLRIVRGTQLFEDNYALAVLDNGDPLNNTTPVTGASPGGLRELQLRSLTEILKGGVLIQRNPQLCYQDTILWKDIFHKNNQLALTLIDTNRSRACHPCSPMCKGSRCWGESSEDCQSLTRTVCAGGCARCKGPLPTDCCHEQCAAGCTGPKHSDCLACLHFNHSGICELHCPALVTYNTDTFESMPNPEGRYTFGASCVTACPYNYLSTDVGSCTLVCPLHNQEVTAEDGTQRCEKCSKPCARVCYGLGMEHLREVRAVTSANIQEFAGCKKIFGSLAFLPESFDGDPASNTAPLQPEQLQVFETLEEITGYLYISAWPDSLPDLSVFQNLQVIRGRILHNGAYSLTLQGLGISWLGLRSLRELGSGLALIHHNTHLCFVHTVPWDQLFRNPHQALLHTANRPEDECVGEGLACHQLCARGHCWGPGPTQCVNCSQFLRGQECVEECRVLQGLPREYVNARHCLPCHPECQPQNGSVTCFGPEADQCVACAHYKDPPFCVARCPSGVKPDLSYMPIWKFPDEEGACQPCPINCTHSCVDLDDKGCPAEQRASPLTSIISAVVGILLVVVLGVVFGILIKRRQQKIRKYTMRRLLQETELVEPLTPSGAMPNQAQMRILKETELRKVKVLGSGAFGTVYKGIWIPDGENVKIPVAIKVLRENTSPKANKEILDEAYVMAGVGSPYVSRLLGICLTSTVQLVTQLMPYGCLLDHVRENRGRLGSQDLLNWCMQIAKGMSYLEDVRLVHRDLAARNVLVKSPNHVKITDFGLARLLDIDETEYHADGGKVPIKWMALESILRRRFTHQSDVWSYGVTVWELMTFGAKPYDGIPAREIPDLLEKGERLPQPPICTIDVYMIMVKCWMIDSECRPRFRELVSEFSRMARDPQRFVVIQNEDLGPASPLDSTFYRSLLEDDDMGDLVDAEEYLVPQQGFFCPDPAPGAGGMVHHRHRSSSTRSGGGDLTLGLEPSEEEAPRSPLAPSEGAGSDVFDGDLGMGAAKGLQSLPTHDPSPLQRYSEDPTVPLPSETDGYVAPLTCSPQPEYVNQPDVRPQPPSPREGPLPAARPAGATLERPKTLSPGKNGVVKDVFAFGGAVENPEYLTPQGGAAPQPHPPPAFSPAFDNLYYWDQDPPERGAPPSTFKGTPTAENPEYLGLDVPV

Turning to `O=C1C2=C(C(=O)c3c(O)ccc(O)c31)[C@@H](O)[C@@H](O)[C@@H](O)C2`, the inhibition result (in [1]; in test [3]; in the test on MCF7 [6]) was “Active” throughout. The Activity in the test with MCF7 [2], with MCF7 [5] and with MCF7 [8] was above 90% in each case. Moreover, the IC50 (usually the concentration that inhibits the measured activity by half) turned out to be 0.91 µM with MCF7 [4], 0.87 µM in the test on MCF7 [7], 0.47 µM in the test on MCF7 [9] and 10.8 µM in test [10].

Regarding `CS(=O)(=O)CCNCc1ccc(-c2ccc3ncnc(Nc4ccc(OCc5cccc(F)c5)c(Cl)c4)c3c2)o1` [LAPATINIB], the inhibition entry (in test [1]; in test [3]; in the test with MCF7 [6]) was “Active” throughout. The Activity in the test on MCF7 [2], with MCF7 [5] and in the test with MCF7 [8] was below 50% each time. Further, the IC50 with MCF7 [4] worked out at 19.2 µM; in the test with MCF7 [7] it was 15.8 µM; with MCF7 [9], 15.7 µM.

As to `CC(=O)Oc1ccc(O)c2c1C(=O)C=CC2=O`, the inhibition entry (in test [1]; in test [3]; in the test on MCF7 [6]) was “inactive” throughout.

Consider `O=C1C(CO)=C(CO)C(=O)c2c(O)ccc(O)c21`, for which the inhibition result (in test [1]; in test [3]; in the test on MCF7 [6]) was “Active” in each case. The Activity in the test on MCF7 [2], in the test on MCF7 [5] and in the test with MCF7 [8] was above 90% each time. The IC50 came to 0.93 µM in the test with MCF7 [4], 0.82 µM with MCF7 [7], 0.5 µM in the test on MCF7 [9] and 11.4 µM in test [10].

Turning to `CC1=CC(=O)c2c(O)cccc2C1=O` [PLUMBAGIN], the inhibition entry (in test [1]; in test [3]; in the test on MCF7 [6]) was “Active” each time. Moreover, the Activity with MCF7 [2], in the test with MCF7 [5] and with MCF7 [8] was above 90% each time. The IC50 is 5.1 µM in the test on MCF7 [4], 2.84 µM in the test with MCF7 [7], 3.35 µM with MCF7 [9] and 30.8 µM in [10].
